Legend:
[1] = tested on: FL-AR, AR-V7 and AR-V9 mRNA and AR protein levels in PC cells; assay: AR mRNA (qRT-PCR) and AR / pYStat5 protein (immunoblot) in PC cells treated with Jak2 inhibitors; format: cell-based; conditions: for FL and AR-V AR mRNA and protein levels: CWR22Rv1 CRPC cell line, FIGS. 6A-6B
Protocol: Jak2 was inhibited for 3 days by Jak2 inhibitors AZD1480, gandotinib, pacritinib, baricitinib or fedratinib at indicated concentrations followed by RNA extraction and quantification of FL-AR, AR-V7 and AR-V9 mRNA levels by qRT-PCR.
Immunoblot analysis of AR expression in PC cells treated with increasing concentrations of Jak2 inhibitors AZD1480, gandotinib, pacritinib or baricitinib for 72 h.
(§1) We tested whether Stat5 regulation of AR mRNA and protein levels provides an opportunity to control AR levels pharmacologically by inhibition of Jak2 signaling. […] Finally, to evaluate the effect of PAC and FED on PC cell viability, CWR22Rv1 cells were treated with increasing concentrations of PAC or FED for 3 days.

[2] = tested on: Stat5 and Jak2 phosphorylation in PC cells; assay: ENZ-induced Jak2-Stat5 phosphorylation in PC cells (IP and WB); format: cell-based; conditions: CWR22Pc, LAPC4 and CWR22Pc-ENZ-R cells; AZD1480 800 nM, 12 days
Protocol: CWR22Pc and LAPC4 PC cells were treated with ENZ or vehicle for the indicated periods of time. Levels of active Stat5 were determined by immunoprecipitation (IP) of Stat5 followed by immunoblotting (WB) for pStat5a/b and total Stat5. Whole cell lysates (WCL) were immunoblotted for pStat3, Stat3 and Actin. […] CWR22Pc and LAPC4 cells were transduced with lentiviral AR shRNA (shAR) or lenti-shCtrl for 3 days followed by treatment with ENZ or vehicle for 7 days at the indicated concentrations.
PC cells were cultured with ENZ or Jak2 inhibitor AZD1480 (800 nM) alone or in combination for 12 days. Expression levels of active Stat5 were determined by IP of Stat5 followed by WB for pStat5a/b and total Stat5. WCLs were immunoblotted for pStat3, Stat3 and Actin. […] Jak2 was suppressed by lentiviral Jak2 shRNA vs. shCtrl in PC cells for 3 days followed by ENZ or vehicle for 7 days. Active Stat5, Stat5 and Jak2 levels were evaluated by IP and WB, as depicted. […] PC cells were treated with ENZ or vehicle for 6 h at the indicated concentrations. Control cells were stimulated with prolactin (Prl) (10 nM) for 20 min as control for cytokine-induced Jak2 phosphorylation. […] Alternatively, PC cells were treated with ENZ or vehicle for 12 days or stimulated with Prl for 20 min at the indicated concentrations. Stat5 and Jak2 were IP:ed and WB:ed for pStat5, pJak2, tot Stat5, and total Jak2.
To investigate whether AR is required for ENZ induction of Stat5 signaling, we inhibited AR expression in CWR22Pc and LAPC4 cells by genetic knockdown using lentiviral expression of AR shRNA (FIG. 9C).
To further assess the involvement of Jak2 in ENZ-induced Stat5 activation, Jak2 was genetically knocked down by lentiviral expression of Jak2 shRNA in CWR22Pc and LAPC4 cells for 3 days followed by ENZ treatment for 7 days.

[3] = tested on: AR mRNA and protein levels in CWR22Pc tumors; assay: AR levels in CWR22Pc xenograft tumors in nude mice; format: in vivo; conditions: 40 mg/kg i.p. daily for 40 days
Protocol: FIG. 4A. Pharmacological Stat5 inhibition decreases AR protein and mRNA levels in PC xenograft tumors in nude mice. Nuclear AR and Stat5 levels were detected by immunostaining of paraffin-embedded tissue sections of CWR22Pc tumors from mice treated with IST5-002 (IST5) (40 mg/kg; i.p.) for 40 days. Also, AR mRNA levels were evaluated by q-RT-PCR. FIG. 4B. Pharmacological inhibition of Stat5 by IST5-002 or pacritinib suppress AR mRNA levels in patient-derived PCs cultured ex vivo. Clinical PCs (n=4) obtained from prostatectomies were cultured for 7 days ex vivo in 3D tumor explant cultures in the presence of Stat5 inhibitor IST5-002 (12.5 μM) or PAC (1 μM) vs. vehicle, and AR mRNA levels were analyzed by qRT-PCR.
To evaluate whether Stat5 regulation of AR mRNA and protein levels is evident in an in vivo setting where PC cells were grown as xenograft tumors in mice, CWR22Pc cells (1.5×10^7) were inoculated subcutaneously into flanks of nude mice (one tumor/mouse). After tumors reached approximately 100 mm^3 in size (12 d), mice were treated daily for 40 days by intraperitoneal injection with IST5-002 (40 mg/kg body weight) or vehicle (0.3% hydroxypropyl cellulose/H2O) (5 mice/group). AR mRNA and protein levels were evaluated by q-RT-PCR(47) and by immunohistochemistry, as previously described(18, 45, 46, 48, 49).

CWR22Rv1 PC cells = assay: Death / viability of CWR22Rv1 PC cells treated with Jak2 inhibitors; format: cell-based; conditions: for IC50: 72 h, CWR22Rv1, at 3 days, read-out: IC50, induction of death of CWR22Rv1 PC cells
Protocol: as §1

[4] = tested on: androgen-responsive PC cell viability; assay: PC cell viability time-course versus androgen withdrawal (crystal violet staining and cell counting); format: cell-based
From the text: Crystal violet staining and cell counting were used to compare PC viability over a time-course of 2-10 days between cells treated with ADT and control (+ADT), cells treated with PAC and control (+DMSO), cells treated with FED and control (+DMSO), cells treated with Jak2 knockdown (shJak2) and control (shCtrl), and cells treated with Stat5 knockdown (shStat5) and control (shCtrl).
Next, we compared the effect of androgen deprivation therapy (ADT) carried out by androgen withdrawal, which is the standard therapy used to treat advanced prostate, to the effect of PAC and FED on androgen-responsive PC cell viability over a time-course of 2-10 days using crystal violet staining and cell counting. Based on this analysis, ADT decreased cell viability by 30% compared to control (+DHT), PAC decreased cell viability by 82% after 4 days of treatment and by 96% after 6 days of treatment compared to the control (+DMSO), FED decreased cell viability by 87% after 4 days of treatment and by 98% after 6 days of treatment compared to control (+DMSO), Jak2 knockdown (shJak2) decreased cell viability by 92% after 4 days of lentivirus infection and by 95% after 6 days of lentivirus infection compared to control (shCtrl), and Stat5 knockdown (shStat5) decreased cell viability by 96% after 4 days of lentivirus infection and by 98% after 6 days of lentivirus infection compared to control (shCtrl) (FIG. 25).

[5] = tested on: CWR22PC PC cells that survive treatment with ENZ; assay: Viability of CWR22PC cells surviving ENZ treatment; format: cell-based, human; conditions: ENZ 5 days, then 300 nM for 4 days
Protocol: The PC cells were treated with ENZ (or vehicle) for 5 days, and were then treated with ENZ, vehicle, PAC, or FED for 4 days.
The effect of PAC and FED in blocking the growth of PC cells that survive treatment with the anti-androgen enzalutamide (ENZ) was tested in CWR22PC PC cells. The PC cells were treated in culture with ENZ (or vehicle) for 5 days, and were then treated with ENZ (40 μM), vehicle, PAC (300, 600 or 1200 nM), or FED (300, 600 or 1200 nM) for 4 days. […] Thus, PAC and FED can be used to reduce ENZ resistant PC cell growth.

[6] = tested on: AR mRNA and protein in PC cells that survive ENZ treatment; assay: AR expression in CWR22PC cells surviving ENZ treatment; format: cell-based, human; conditions: ENZ 5 days, then PAC or FED for 4 days
[7] = tested on: FL-AR and AR-V protein levels in CWR22Rv1 cells; assay: Pilot experiment: FED on AR protein levels in CWR22Rv1 cells (IB); format: cell-based; conditions: CWR22Rv1, 4 days
From the text: Jak2 was inhibited for 4 days by fedratinib (FED) at indicated concentrations followed by quantification of FL-AR, AR-V7 and AR-V9 protein levels by IB.
We conducted a pilot experiment to test the efficacy of FED in suppressing AR levels in PC cells (FIG. 16).

[8] = tested on: AR-FL, AR-V7 and AR-V9 mRNA expression; assay: Low concentrations of FED and PAC on AR mRNA expression; format: cell-based; conditions: 0-0.6 μM
Protocol: As a preliminary study, we tested whether low contrations of FED and PAC (0, 0.01875, 0.0375, 0.075, 0.15, 0.3, 0.6 μM) reduce mRNA expression of full-length (AR-FL) and variant (AR-V7 and AR-V9) forms of AR.

[9] = tested on: AR mRNA and protein expression in CWR22PC cells; assay: PAC and FED on AR expression after Stat5-shRNA in CWR22PC cells; format: cell-based, human; conditions: lentiviral Stat5-shRNA
From the text: We tested whether PAC and FED are able to further reduce AR mRNA and/or protein expression following genetic suppression of AR gene expression via lentiviral expression of Stat5-shRNA in CWR22PC cells.

[10] = tested on: AR protein levels in CWR22PC cells; assay: Time-course of AR protein levels in CWR22PC cells; format: cell-based, human; conditions: timepoints 12-72 h
[11] = tested on: AR-FL, AR-V7 and AR-V9 expression and Stat5 phosphorylation in PC cell lines; assay: Clinical grade versus research grade pacritinib: Stat5 phosphorylation and AR expression in PC cell lines; format: cell-based
Protocol: Control cells were treated with […] (ShCtrl).
The ability of clinical grade pacritinib (CTI Biopharma) to inhibit Stat5 phosphorylation and suppress AR expression in prostate cancer cells in vitro was compared to that of research grade pacritinib (MedChem Express (MCE)) and to cells in which Jak2 was knocked down using lentivirus expressing Jak2-shRNA (shJak2). […] Thus, clinical grade pacritinib induces the same effects as research grade pacrtinib, suppressing AR levels and reducing PC cell viability.

## Cc1cc(Nc2nc(N[C@@H](C)c3ncc(F)cn3)ncc2Cl)n[nH]1 [AZD1480, 5-chloro-2-N-[(1S)-1-(5-fluoropyrimidin-2-yl)ethyl]-4-N-(5-methyl-1H-pyrazol-3-yl)pyrimidine-2,4-diamine]
[1]
  FL and AR-V AR mRNA and protein levels: dose-dependent reduction
[2]
  ENZ-induced Stat5 phosphorylation: blocked ENZ-induced Stat5 phosphorylation

## O=P(O)(O)OC[C@H]1O[C@@H](n2cnc3c(NCc4ccccc4)ncnc32)[C@H](O)[C@@H]1O [IST5-002]
[3]
  AR mRNA and protein expression in PC tumors in vivo: marked decrease in AR mRNA and protein expression

## CCS(=O)(=O)N1CC(CC#N)(n2cc(-c3ncnc4[nH]ccc34)cn2)C1 [baricitinib, 2-[1-Ethylsulfonyl-3-[4-(7H-pyrrolo[2,3-d]pyrimidin-4-yl)pyrazol-1-yl]azetidin-3-yl]acetonitrile]
[1]
  FL and AR-V AR mRNA and protein levels: dose-dependent reduction

## Cc1cnc(Nc2ccc(OCCN3CCCC3)cc2)nc1Nc1cccc(S(=O)(=O)NC(C)(C)C)c1 [fedratinib, N-tert-Butyl-3-{5-methyl-2-[4-(2-pyrrolidin-1-yl-ethoxy)-phenylamino]-pyrimidin-4-ylamino}-benzenesulfonamide]
CWR22Rv1 PC cells
  IC50: 300 nM
[1]
  FL and AR-V AR mRNA and protein levels: dose-dependent reduction
[4]; after 4 days of treatment
  decrease in cell viability compared to control (+DMSO): 87%
[4]; after 6 days of treatment
  decrease in cell viability compared to control (+DMSO): 98%
[5]
  growth / viability of PC cells surviving ENZ treatment: able to block the growth PC cells surviving ENZ treatment with very high efficacy
[6]
  AR expression at mRNA and protein level in PC cells that survive ENZ treatment: reduces expression of AR at both the mRNA and protein level
[7]
  FL-AR and AR-V protein levels: depletes FL-AR and AR-V protein levels almost entirely
[8]
  mRNA expression of AR-FL, AR-V7 and AR-V9 versus concentration: AR expression levels decrease with increased concentrations
[9]
  further reduction of AR mRNA/protein expression after Stat5-shRNA: no further decrease in AR expression levels

## Cc1cc(Nc2cc(CN3CCOCC3)c3nc(C)c(Cc4ccc(Cl)cc4F)n3n2)n[nH]1 [gandotinib, 3-(4-Chloro-2-fluorobenzyl)-2-methyl-N-(5-methyl-1H-pyrazol-3-yl)-8-(morpholinomethyl)imidazo[1,2-b]pyridazin-6-amine]
CWR22Rv1 PC cells
  IC50: 300 nM
[1]
  FL and AR-V AR mRNA and protein levels: dose-dependent reduction

## N#CCNC(=O)c1ccc(-c2ccnc(Nc3ccc(N4CCOCC4)cc3)n2)cc1 [momelotinib]
CWR22Rv1 PC cells; FIG. 7D, 7E
  induction of death of PC cells: does not provide the same effect of beneficial induction of cell death
[1]; 72 h, immunoblot, FIG. 6B
  AR protein levels in PC cells: did not result in the suppression of AR protein levels
[1]; 3 days, qRT-PCR, FIG. 6A
  AR mRNA levels in PC cells: does not suppress AR expression in PC cells
[1]
  FL and AR-V AR mRNA and protein levels: dose-dependent reduction
[1]; prostate cancer cells, FIG. 6B
  Stat5 phosphorylation: does not inhibit Stat5 phosphorylation

## C1=C/COCc2cc(ccc2OCCN2CCCC2)Nc2nccc(n2)-c2cccc(c2)COC/1 [pacritinib, (16E)-11-[2-(1-Pyrrolidinyl)ethoxy]-14,19-dioxa-5,7,26-triazatetracyclo[19.3.1.12,6.18,12]heptacosa-1(25),2(26),3,5,8,10,12(27),16,21,23-decaene]
CWR22Rv1 PC cells
  IC50: 300 nM
[1]
  FL and AR-V AR mRNA and protein levels: dose-dependent reduction
[4]; after 4 days of treatment
  decrease in cell viability compared to control (+DMSO): 82%
[4]; after 6 days of treatment
  decrease in cell viability compared to control (+DMSO): 96%
[10]
  time after treatment at which AR protein levels start to decrease: 48 h
[5]
  growth / viability of PC cells surviving ENZ treatment: able to block the growth PC cells surviving ENZ treatment with very high efficacy
[6]
  AR expression at mRNA and protein level in PC cells that survive ENZ treatment: reduces expression of AR at both the mRNA and protein level
[11]; CWR22PC and CWR22Rv1, FIG. 18
  efficacy in suppressing AR protein expression relative to research grade pacritinib: has higher efficacy than research grade pacritinib (MCE)
[11]; CWR22Pc, LAPC4
  phosphorylation of Stat5: decreases phosphorylation of Stat5
[11]; CWR22Rv1 and CWR22PC
  AR expression at the protein level: caused a reduction in AR expression at the protein level
  mRNA expression of AR-FL, AR-V7 and AR-V9: reduced mRNA expression levels of both full-length (AR-FL) and variant (AR-V7 and AR-V9) forms of AR
[11]; CWR22Rv1 and CWR22PC, FIG. 17
  efficacy in suppressing AR mRNA expression relative to research grade pacritinib: has higher efficacy than research grade pacritinib (MCE)
[8]
  mRNA expression of AR-FL, AR-V7 and AR-V9 versus concentration: AR expression levels decrease with increased concentrations
[9]
  further reduction of AR mRNA/protein expression after Stat5-shRNA: no further decrease in AR expression levels
